The target of one test is Serine/threonine-protein kinase D1 (Homo sapiens) (UniProt Q15139). Nature of the test: PKD1 kinase inhibitors, IC50 values, dose response, biochemical, fluorescence polarization (AID 1408).
Serine/threonine-protein kinase D1 (Homo sapiens), sequence (Q15139 whole entry, looked up): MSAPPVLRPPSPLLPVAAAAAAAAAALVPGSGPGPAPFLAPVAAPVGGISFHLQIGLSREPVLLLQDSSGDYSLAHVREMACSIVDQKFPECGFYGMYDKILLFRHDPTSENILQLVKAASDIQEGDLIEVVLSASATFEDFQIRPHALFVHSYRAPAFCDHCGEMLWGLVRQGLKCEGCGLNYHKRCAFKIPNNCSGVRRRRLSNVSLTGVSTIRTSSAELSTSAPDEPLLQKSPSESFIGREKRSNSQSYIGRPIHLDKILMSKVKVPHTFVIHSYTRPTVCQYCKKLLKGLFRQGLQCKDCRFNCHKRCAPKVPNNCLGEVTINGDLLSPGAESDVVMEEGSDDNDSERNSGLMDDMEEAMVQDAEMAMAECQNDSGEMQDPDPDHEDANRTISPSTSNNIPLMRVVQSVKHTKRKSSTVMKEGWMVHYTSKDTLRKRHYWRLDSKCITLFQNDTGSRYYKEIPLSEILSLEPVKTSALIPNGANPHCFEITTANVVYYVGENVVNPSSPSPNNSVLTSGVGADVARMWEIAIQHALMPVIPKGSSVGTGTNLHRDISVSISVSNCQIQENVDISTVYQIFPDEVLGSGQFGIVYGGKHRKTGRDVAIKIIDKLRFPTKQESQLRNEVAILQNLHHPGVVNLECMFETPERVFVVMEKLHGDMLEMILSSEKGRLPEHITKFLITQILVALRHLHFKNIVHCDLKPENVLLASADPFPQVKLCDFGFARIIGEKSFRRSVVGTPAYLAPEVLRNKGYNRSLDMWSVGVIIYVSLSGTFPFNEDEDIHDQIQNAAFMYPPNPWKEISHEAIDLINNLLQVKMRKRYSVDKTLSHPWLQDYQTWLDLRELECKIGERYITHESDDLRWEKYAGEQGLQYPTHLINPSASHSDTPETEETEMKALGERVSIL
Settings: not given
In general terms: Polarisation of emitted light reports the rotation of a fluorescent probe.
As a reminder, the IC50 is the concentration needed to halve the response being measured. For the compound `Clc1cncc(Cl)c1N/N=C/c1ccncc1`, the IC50 was 9.61 µM.
Turning to `C/C(=N\Nc1ncc(Cl)cc1Cl)c1ccccn1`, the IC50 was 9.31 µM.

Still in this test, the particulars now being: inhibition, at 50 µM, stronger effect = higher value.
The term inhibition denotes the drop in the measured response relative to a control, in per cent. As to `CS(=O)(=O)N1CCN(c2ccccc2NC(=O)c2ccc(Br)o2)CC1`, the inhibition stood at 15.2%.
Regarding `CCOC(=O)c1sc(=NC(=O)CCS(=O)(=O)c2ccccc2)n(C)c1C`, the inhibition was -2.41%.
For the compound `O=C(CSc1ccc2nnc(-c3cccnc3)n2n1)c1ccccc1`, the inhibition was -0.442%.
With `Cc1c(C#N)c(N)nc(Cl)c1C#N`, the inhibition is 5.41%.
For `CCCc1cc(=O)[nH]c(SCCCCN2C(=O)c3ccccc3C2=O)n1`, the inhibition was 0.534%.
Turning to `CC(=O)Oc1cc(OC(C)=O)c2c(C)cc(=O)oc2c1`, the inhibition stood at 29%.
With `O=[N+]([O-])c1ccc(Nc2c3ccccc3nc3ccccc23)cc1`, the inhibition was -1.2%.
For `CSc1ccccc1C(=O)NCc1ccc(F)cc1`, the inhibition was determined as 1.94%.
As for `NC(N)=NC(=O)c1nc(Cl)c(N)nc1N`, the inhibition came out at 96.6%.
In the case of `O=C1CSCN1c1cc(Cl)ccc1Cl`, the inhibition was determined as 1.32%.
For `O=C(CSc1ccncc1)Nc1ccc2ccccc2c1`, the inhibition was -4.61%.
As to `COc1ccc(CNC(=O)C2Cc3ccccc3CN2C(=O)c2ccco2)cc1` (stereo unspecified), the inhibition came to 9.09%.
Same read-out and setting: then `Clc1cncc(Cl)c1N/N=C/c1ccncc1`, with 83.8%; and `O=C(O)c1cc(C(=O)C2CCCCC2)c[nH]1`, with 3.08%.
Regarding `O=C(Nc1ccccc1C(=O)N1CCCC1)C1COc2ccccc2O1` (stereo unspecified), the inhibition came out at 1.87%.
Regarding `CCC1=NNc2cccc3c(OC)ccc1c23`, the inhibition is 67%.
On to `Cc1cc(NCCCN)nc(-c2ccccc2O)n1`, for which the inhibition was 94.4%.
`COC(=O)c1c(NC(=O)C2C3CCC(C3)C2C(=O)O)sc2c1CCCCC2` (stereo unspecified): the inhibition was 7.89%.
Consider `Cn1cccc1C(=O)NC(=O)COC(=O)c1cc(S(=O)(=O)N2CCCCC2)ccc1Cl`, for which the inhibition is -3.91%.
As for `C/C(=N\Nc1ncc(Cl)cc1Cl)c1ccccn1`, the inhibition came to 65.6%.
`Nc1nc2ccc([N+](=O)[O-])c(N)c2s1`: the inhibition came out at 95.9%.
On to `CC1Cc2ccccc2N1c1ncnc(N)c1[N+](=O)[O-]` (stereo unspecified), for which the inhibition is 76.8%.
As to `NC(=O)c1cn(C2OC(CO)C(O)C2O)c2ncnc(N)c12` (stereo unspecified), the inhibition stood at 102%.
As for `O=C(Nc1ccc(CN2CCOCC2)cc1)c1ccc(-c2cccc(Cl)c2)o1`, the inhibition was 96.2%.
The same measure, in the same setting: then `O=C(NNC1=Nc2cccc3cccc1c23)c1ccc(Br)cc1`, with -3.67%; and `O=C1NCCCc2c1oc1ccc(O)cc21`, with 101%; and `CCC(=O)Nc1c2c(nn1-c1ccccc1C)CSC2`, with -1.23%.
On to `Cc1cc(NC(=O)CCC(=O)N(Cc2ccco2)C(C(=O)NCC2CCCO2)c2ccncc2)no1` (stereo unspecified), for which the inhibition is -0.875%.
As to `COc1ccc(Cn2c(=O)[nH]c3cc(C(=O)NC4CCCC4)ccc3c2=O)cc1`, the inhibition stood at 14.8%.

These data come from PubChem BioAssay AID1408 (University of Pittsburgh Molecular Library Screening Center, 2008).
